The values below come from patent US12173042B2, “Methods of treating cancers with CT45 targeted therapies” (The University of Chicago, priority 2016, dated 2024).

“Also recorded” adds a separate entry of the source.

What all share (type): cell-based, human
Experiment [1] deals with OVCAR5 CT45 expressing cells. Kind of experiment: Proliferation with increasing concentrations of carboplatin. The conditions noted are these: CT45 expressing cells treated with carboplatin. As for the experimental part: FIG. 8A-B. CT45 sensitizes cancer cells to carboplatin. a, Western blot of CT45 expression in ovarian cancer cell lines transduced with a CT45A5 lentivirus. b, Proliferation of OVCAR5 control (V5) or CT45 expressing cells with increasing concentrations of carboplatin.
FIG. 19A-F. CT45 sensitizes cancer cells to carboplatin. a, MTT of SKOV3ip1 cells with or without 500 nM DAC treated with increasing doses of carboplatin. Cells were pretreated with 500 nM DAC for 72 hr then cultured for 4 days and treated with carboplatin on day 7. The MTT was performed after 72 hr with carboplatin treatment. b, Western blot of CT45 expression in ovarian cancer cell lines transduced with a CT45A5 lentivirus. c, Proliferation of OVCAR5 control (V5) or CT45 expressing cells with increasing concentrations of carboplatin. d, Cell cycle analysis of OVCAR5 control (V5) or CT45 expressing cells stained with propidium iodide. e, Clonogenic survival assay of the ovarian cancer cell line OVKATE stably overexpressing CT45 or control. Dots represent mean values from three independent experiments. Error bars show s.e.m. for each group. f, Interaction proteomics screen in the ovarian cancer cell line COV318 stably over-expressing V5-tagged CT45. Protein enrichment (t-test difference) is calculated over the corresponding control cell line (V5 tag alone) and plotted against the t-test p-value (−log10). […]

The subject of experiment [2] is interaction of CT45 with heterochromatin-associated PP4. Kind of experiment: ChIP-MS of V5-tagged CT45 ± carboplatin. The conditions noted are these: OVCAR5-V5-CT45 ± carboplatin. As for the experimental part: For chromatin immunoprecipitation coupled to mass spectrometry (ChIP-MS), freshly harvested cells were crosslinked with 1% formaldehyde for 10 min in PBS. Cells were lysed in IP Buffer (50 mM Tris-HCl (pH 8), 100 mM NaCl, 5 mM EDTA (pH 8), 0.3% SDS, 1.7% Triton-X-100, supplemented with EDTA-free protease inhibitor cocktail (Roche) and phosphatase inhibitor cocktail (Roche)) and chromatin sonicated to an average size of 200-400 bp. 1 mg of total cell lysate was incubated with 3 μg of respective antibody overnight at 4° C. under constant rotation. The next day, 30 μl of protein G-coupled agarose beads (Cell signaling technology) were added and incubated for 3 h at 4° C. under constant rotation. Antibody-bait complexes were then washed three times with low salt wash buffer (50 mM HEPES pH 7.5, 140 mM NaCl, 1% Triton), once with high salt wash buffer (50 mM HEPES pH 7.5, 500 mM NaCl, 1% Triton) and twice with TBS. Elution was carried out by a partial on-bead digest as recently described. Peptides were finally desalted with C18 StageTips prior to MS analysis.

For another experiment, the system named is OVCAR5-V5-CT45 cells. Kind of experiment: Nuclear size (DAPI). The conditions noted are these: cells expressing CT45, day 5, carboplatin 5 μM. As for the experimental part:
FIG. 13A-I. CT45 interferes with chromatin dynamics after DNA damage. A, Western blot analysis of OVCAR5 and OVKATE cell line pairs treated with carboplatin (5 μM). Day 3. B, Immunofluorescence staining of KAP1-S824 γH2AX and DAPI in OVCAR5-V5 and OVCAR5-V5-CT45 cell line pair with or without carboplatin treatment (5 μM) at day 3, 5, and 7. Data are means+/−s.e.m. of 5 independent replicates (right panel). Representative cells are shown left. C, CT45 positive 59M cells were collected and processed for a chromatin segregation assay as detailed in the Methods. PP4 complex members, KAP1, and HDAC2 were detected by western blot. D, Volcano plot of chromatin-immunoprecipitation mass spectrometry (ChIP-MS) results for the V5-tag in OVCAR5-V5-CT45 vs. OVCAR5-V5 cell line. Fold enrichment of V5-tagged CT45 over control cell line (V5 tag alone) is plotted against the t-test p-value (−log10). Dashed lines indicate significance thresholds (FDR<0.01, s0=2). […] Most significant pathways are ranked by enrichment false-discovery rate. F, Fold change in nuclear sizes of OVCAR5-V5-CT45 and OVCAR5-V5 cells at day 5 with carboplatin (5 μM) treatment normalized to untreated cells. Representative DAPI images are shown in upper panel. Bar plots represent nuclear sizes from 5 independent experiments. Scale ar=[…]. Data are means+/−s.e.m. […]

Experiment [3] concerns chromatin of OVCAR5-V5-CT45 and OVCAR5-V5 cells. Kind of experiment: Micrococcal nuclease (MNase) assay. Conditions: after five days, vector control and CT45 overexpressing cell line. As for the experimental part:
Chromatin relaxation was assayed using the micrococcal nuclease (MNase) assay as previously described, with a few modifications. Briefly, nuclei from 1E6 cells were extracted with 300 μl ice-cold lysis buffer (10 mM Tris-HCl (pH 7.5), 10 mM NaCl, 3 mM MgCl2 and 0.4% IGPAL-CA-630) on ice for 5 min. After centrifugation (2,000 g for 5 min at 4° C.), nuclei were washed two times in lysis buffer and one time in 500 μl digestion buffer (0.32M sucrose, 50 mM Tris-HCl (pH7.5), 4 mM MgCl2, 1 mM CaCl2). Nuclei were then digested in digestion buffer with 50 gel units MNase (NEB) for 9 min at 27° C. in a final volume of 100 μl. The reaction was stopped by adding a final concentration of 1% SDS and 15 mM EGTA. Genomic DNA was purified and separated by gel electrophoresis (1.2% agarose).

Turning to `N.N.O=C([O-])C1(C(=O)[O-])CCC1.[Pt+2]` [carboplatin], the proliferation result in experiment [1] was “significantly reduced; also recorded: reduced proliferation”. In addition, the “interaction of CT45 with heterochromatin-associated PP4” value in experiment [2] was “not affected”. Moreover, the nuclear size result with OVCAR5-V5-CT45 cells was “larger nuclei”. In addition, the chromatin relaxation entry in experiment [3] is “induced global chromatin relaxation”.
